Source: patent US4145444A, “Anti-inflammatory agent of benzoyl derivative” (priority 1977, dated 1979)
Read-outs that look alike come from different tables or passages of the source.

Assays:
[1] = system: male mice; test: Analgesic effect: painful stretchings following intraperitoneal 0.7% acetic acid; conditions: Mus musculus, po, read-out: Analgesic: percentage diminition of times of painful stretching
Protocol: Each sample was orally administered in the dosage of 100 mg/kg before injection of acetic acid.

[2] = system: thrombus; test: Inhibiting effect on thrombosis (by-pass between left juglar vein and right carotid artery, silk thread); assay type: in vivo, SD type male rates; conditions: Rattus norvegicus, read-out: Thrombosis inh.: thrombosis inhibition rate
Protocol: The inhibiting effects of the samples of the invention on thrombosis were tested by the following test method.
A 0.5 ml of 50 μ/ml of the heparin physiological saline was added through the polyethylene tube before the first blood circulation. After the blood circulation for 15 minutes, the circulation was stopped in the middle of the tubing at artery side with a pinch cock.
Then, 0.2 ml of the heparin physiological saline was added to remove the blood coagulates on the tubing wall and another new polyethylene tubing filled with the heparin solution and containing a piece of new silk thread was attached between the venous and artery tubing ends.
The blood circulation was reestablished by opening the pinch cock. After 15 minutes, the wet weight of thrombus on the silk thread was similarly measured.
In the same manner, the third circulation was performed and wet weight of thrombus measured.
The amount of thrombus was given by the equation A. [formula] Each sample was suspended in an aqueous solution of sodium carboxymethyl cellulose and the oral dose of the suspension (100 mg/kg) was performed at 5 hours before the first blood circulation.
The amount of thrombus after the oral dose of the sample was calculated in the same manner as that of control circulations.
The thrombosis inhibition rate was given by the equation B. [formula]

[3] = system: platelet; test: Blood platelet aggregation inhibiting effect (collagen-induced); assay type: cell-based, rabbits; conditions: Oryctolagus cuniculus, Platelet; 10^-4 mole, collagen inducer, rabbit PRP; read-out: Blood platelet agg. inh.: percentage inhibition of platelet aggregation
Source text: Male rabbits (Japan original white strain 3.3 to 3.6 kg) were anesthetized with Thiopental sodium and blood was sampled from the carotid artery.

[4] = system: hind paws of male rats; test: Anti-inflammatory effect: acute carragheenin edema method; assay type: in vivo; conditions: Rattus norvegicus; for inhibition in vivo at 100 mg/kg: read-out: Anti-inf.: edema inhibition rate
Protocol: The edema was induced by subcutaneous injection of 1% carragheenin suspension in saline to the hind paws of male rats weighting 150 to 180 g. Each sample was orally given at the dosage of 100 mg/kg just before the inoculation of carragheenin.

[5] = 100 mg/kg oral, 5 hours before first blood circulation, rats
[6] = 100 mg/kg oral, carragheenin edema, male rats (Table 2)

Structure (SMILES)	inhibition in vivo at 100 mg/kg [1]	inhibition in vivo at 100 mg/kg [2, 5]	inhibition at 100 µM [3]	inhibition in vivo at 100 mg/kg [4, 6]	inhibition in vivo at 100 mg/kg ([2]; po, 5 h)	ED50 ([4]; po, read-out: 50% inhibition ED50 (values in brackets))	inhibition in vivo at 100 mg/kg ([4]; po)
CCCCc1ccc(C(=O)c2ccc(OC)cc2)cc1 [compound 18]	20.1%	24.2%	9.3%	41.6%			
CCCCc1ccc(C(=O)c2ccccc2)cc1 [compound 19]	30.1%	7.9%	18.6%	63.4%			
CCCc1ccc(C(=O)c2ccccc2)cc1 [compound 20]	17.3%	4.1%	36.6%	42.7%			
CC(C)c1ccc(C(=O)c2ccccc2)cc1 [compound 21]	16.1%	5.4%	8.6%	37.3%			
CC(C)(C)c1ccc(C(=O)c2ccccc2)cc1 [compound 22]	8.2%	7.9%	9.5%	36.4%			
CCCCCc1ccc(C(=O)c2ccccc2)cc1 [compound 23]	10.1%	22.3%	13.8%	50.4%			
CCCCCCc1ccc(C(=O)c2ccccc2)cc1 [compound 24]	47.7%	24.3%	10.5%	37.6%			
CCCCCCCc1ccc(C(=O)c2ccccc2)cc1 [compound 25]	48.6%	22.1%	7.8%	40.8%			
CCCCCCCCc1ccc(C(=O)c2ccccc2)cc1 [compound 26]	35.9%	24.8%	3.1%	47.2%			
O=C(c1ccccc1)c1ccccc1 [compound 27]	13.2%		25.7%		25.9%	120 mg/kg	47.7%
CCCCc1ccc(C(=O)C(=O)c2ccccc2)cc1 [compound 29]	2.7%	15.3%	11.1%	44.7%			
Cc1ccc(C(=O)c2ccccc2)c(C)c1C [compound 31]	9.5%	23.5%	18.2%	35.4%			
Cc1cc(C)c(C(=O)c2ccccc2)cc1C [compound 32]	26.2%	25%	12.4%	47.7%			
CCc1ccc(C(=O)c2ccc(C)cc2)cc1 [compound 33]	15.5%	28.3%	20.5%	43.9%			
CCCc1ccc(C(=O)c2ccc(C)cc2)cc1 [compound 34]	12.1%	24.5%	16.4%	43.1%			
CCCCc1ccc(C(=O)c2ccc(C)cc2)cc1 [compound 35]	17.8%	2.65%	11.3%	48.5%			
CCCCCCc1ccc(C(=O)c2ccc(C)cc2)cc1 [compound 36]	13.7%	28.1%	15.1%	34.8%			
Cc1ccc(C(=O)c2ccccc2)c(C)c1 [compound 37]	9.8%	5.3%	17.4%	39.6%			
Cc1ccc(C)c(C(=O)c2ccccc2)c1 [compound 38]	18%	8.3%	20.9%	37.5%			
CCCCc1ccc(C(=O)Cc2ccccc2)cc1 [compound 39]	23.1%	15.9%	2.6%	35.9%			
CCCCc1ccc(C(=O)c2ccccc2C)cc1 [compound 40]	20.3%	30.3%	11.9%	58.1%			

Structure (SMILES)	inhibition in vivo at 100 mg/kg [1]	inhibition in vivo at 100 mg/kg [2, 5]	inhibition at 100 µM [3]	inhibition in vivo at 100 mg/kg [4, 6]	inhibition in vivo at 100 mg/kg ([2]; po, 5 h)	ED50 ([4]; po, read-out: 50% inhibition ED50 (values in brackets))	inhibition in vivo at 100 mg/kg ([4]; po)
CCCCCc1ccc(C(=O)c2ccccc2C)cc1 [compound 41]	14.6%	28.5%	14.4%	47.4%			
CCCCOc1ccc(C(=O)c2ccccc2)cc1 [compound 42]	26.8%	10.7%	4.4%	35.8%			
CCCCc1ccc(C(=O)c2ccc(CCCC)cc2)cc1 [compound 43]	0%	86%	3.5%	34%			
CCCCc1ccc(C(=O)c2ccccc2Cl)cc1 [compound 44]	15.6%	35.6%	10.5%	57.7%			
CCCCCc1ccc(C(=O)c2ccc(OC)cc2)cc1 [compound 45]	12.5%	30.8%	17.7%	37.8%			
CCCCc1ccc(C(=O)c2ccc(F)cc2C)cc1 [compound 46]	13.4%	34.5%	16.5%	43.4%			
O=C(Cc1ccccc1)c1ccccc1 [compound 47]	13.1%		18.3%		15.6%		20.9%
Cc1ccc(C(=O)Cc2ccccc2)cc1 [compound 48]	12.5%	18.3%	20.5%	26%			
CCCc1ccc(C(=O)Cc2ccccc2)cc1 [compound 49]	18.2%	13.4%	28.5%	10.7%			
CCCCCCCCCCc1ccc(C(=O)Cc2ccccc2)cc1 [compound 50]	16.4%	28.3%	8.7%	25.5%			
CCCCCCCCCCCc1ccc(C(=O)Cc2ccccc2)cc1 [compound 51]	18.3%	13.5%	9.5%	24.6%			
CCCCCCCCCCCCc1ccc(C(=O)Cc2ccccc2)cc1 [compound 52]	12.5%	10.1%	6.8%	25.5%			
O=C(C(=O)c1ccccc1)c1ccccc1 [compound 53]	14.2%		10.1%		19.2%		20.3%
Cc1ccc(C(=O)C(=O)c2ccccc2)cc1 [compound 54]	11.3%		15.4%		20.3%		25.5%
CCc1ccc(C(=O)C(=O)c2ccccc2)cc1 [compound 55]	15.8%	16.4%	23.3%	29%			
CCCCCCc1ccc(C(=O)C(=O)c2ccccc2)cc1 [compound 56]	20.5%	15.1%	20.3%	14.9%			
COc1ccc(C(=O)Cc2ccccc2)cc1 [compound 57]	10.3%	6.5%	12.5%	16.1%			
CCCOc1ccc(C(=O)Cc2ccccc2)cc1 [compound 58]	19.8%	14.6%	20.1%	15.3%			
CCCCCOc1ccc(C(=O)Cc2ccccc2)cc1 [compound 59]	22.8%	14.1%	25.6%	20.7%			
COc1ccc(C(=O)Cc2ccc(Cl)cc2)cc1 [compound 60]	6.3%	12.3%	4%	13.2%			
CCCCOc1ccc(C(=O)Cc2ccc(Cl)cc2)cc1 [compound 61]	15.1%	8.5%	15.8%	16.7%			
